Values joined by “and” are separate entries in the source; they are usually repeats but may differ in a detail not shown here. Equal values may be shown once.
Experiments:
Solubility in DMSO = format: physicochemical; conditions: in 1 ml DMSO
Method: Nitazoxanide (NTZ), the compound of formula (II), is the generic name for 2-(acetolyloxy)-N-(5-nitro 2-thiazoly) benzamide, a compound first synthesized by Rossignol and Cavier in 1975. 2 mg of nitazoxanide can be dissolved in 1 ml DMSO. Nitazoxanide is easily absorbed orally.

MDBKF5D2 cell monolayers = experiment: Toxicity testing assay (Example III), MTS/PMS; format: cell-based; conditions: cattle, 48 h
Method: 200µl of medium containing nitazoxanide solution at the pre-mentioned concentrations and the proper controls were introduced into two wells of a 96 well plate containing confluent MDBKFD2 cell monolayers and two wells without monolayers. […] The plate was returned to the incubator in the dark to develop for 2 hours. At 2 hours, 100 µl of each supernatant was transferred to a new microtiter plate and read in the ELISA reader at 490 nm. Results were recorded and analyzed. […] (OD medium - OD drug x 100)/(OD medium) [formula] […]

mycobacteria = experiment: MTS colorimetric assay of mycobacteria growing in a liquid broth; format: cell-based
Method: Fig. 7 is a chart based upon the assay for nitazoxanide effectiveness against mycobacteria growing in a liquid broth. We used the MTS colorimetric assay which permits us to determine growth in 4 hours rather than 3 weeks as with the agar counting method.

Cryptosporidium parvum = experiment: Experimentally infected suckling mice, oocyst shedding; format: in vivo
Method: The effect of nitazoxanide was tested against Cryptosporidium parvum in experimentally infected mice. Nitazoxanide was supplied by Romark Laboratories, L.C. in Tampa, Florida. The total human dose (1 g/day for 7 days i.e. 7 g) was modified for use for mice according to Paget and Barnes. The human dose was multiplied by 0.0026 for mice (weighing approximately 20 grams) to obtain he total amount of the drug needed for each host morning and evening for 7 consecutive days. […] The doses were administered by mouth using a plastic syringe equipped with around tip needle. Twenty (20) 2-day old suckling mice were infected by oral administration of 100,000 oocysts of Crytospordium parvum obtained from infected calves. Before being administered to mice, the oocysts were concentrated using a sugar solution according to the technique described by […]. Rectal swabs from each mouse were obtained and examined daily using the modified […] staining technique described by Graczyk et al. Oocysts shedding appeared in feces 2 days after the oral infection of the animals. On the third day following infection of the animals, 10 mice received 1.3 mg of nitazoxanide, morning and evening, for 7 consecutive days while the 10 remaining mice were kept as untreated controls. Rectal swabs were obtained daily for each of the 7 days of treatment and for each of the 7 days following the end of treatment. The oocysts were suspended in oil and counted per 100 fields under a microscope.

[1] = tested on: early mature (10-week/old) F. gigantica; experiment: Experimentally infected rabbits, early mature flukes; format: in vivo, Fasciola gigantica
Method: Nitazoxanide was tested against immature and mature Fasciola gigantica in experimentally infected rabbits. Fasciola gigantica encysted metacercariae (EMC) were collected on cellophane sheet after 28-35 days from infection of L. calludi snails by Fasciola gigantica miracidium using the technique described by […] snails were exposed daily to artificial light, for 30 minutes, in clean dechlorinated tap water. The resulting encysted […]) were preserved at 4°C in a refrigerator for 5 to 8 days under the surface of water until they were used to infect experimental animals. Forty (40) Boscat rabbits, weighting 1.5 to 2 kg each, were included in the study and allocated to two treatment groups of 20 animals. […] Ten animals from Group 2 received 35 mg of nitazoxanide, morning and evening, for 7 consecutive days 10 weeks after their infection at the mature stage of the parasite. The 10 remaining animals in Group 2 were kept as untreated controls. All animals were fed with dry ration until the end of the experiment. Seven days after administration of the last dose of nitazoxanide, all rabbits from each group were sacrificed. The surface of the liver was examined for the presence of necrotic migrating furrows especially at the immature stage of the parasite cycle. These necrotic areas were examined using two surgical needles in order to extract the juvenile migrating flukes according to the technique described by El-Bahy. The livers were sliced in small pieces especially around the migrating furrows and macerated under a microscope in order to extract the existing flukes. The abdominal cavity and the visceral surfaces were washed with warm water. The water was then collected, sieved and examined for identification of juvenile flukes. All the collected parasites as well as parts of them were counted in both treated and untreated animal in both Groups 1 and 2. […] The efficacy of nitazoxanide was calculated by using the formula indicated below: % efficacy(a - b)/(a)x 100 [formula] Where: • a = the number of flukes recovered from feces in the control animals • b = the number of flukes recovered from feces in the treated animals.

[2] = tested on: mature (13-week/old) Schistosoma hematobium; experiment: Experimentally infected mice, worm count; format: in vivo
Method: (§1) Nitazoxanide was tested against Schistosoma mansoni and Schistosoma hematobium in experimentally infected mice. Forty (40) white mice, weighing 30 to 50 grams were allocated to two treatment groups of 20 animal per group. The first group was infected with 300-500 Schistosoma mansoni free active cercariae suspended in 0.25 ml of distilled water and administered to each mouse by intraperitoneal injection. The second group was infected in the same manner but with Schistosoma hemotobium cercariae. These two groups were then kept for a total of 70 days in the laboratory. Seventy days after infection of the animals, ten mice from each group were treated with nitazoxanide as a 1.3 mg oral dose administered, morning and evening, for 7 consecutive days. Seven days after the end of treatment tall mice were sacrificed and the worms were extracted from the liver of each animal by perfusion using tepid water (37°C). The extracted schistosomes were counted for all treatment and control animals. The efficacy of nitazoxanide was calculated busing the formula indicated below: % efficacy(a - b)/(a)x 100 [formula] Where: • a = the number of schistosomes recovered from feces in the control animals • b = the number of schistosomes recovered from feces in the treated animals

[3] = tested on: mature (13-week/old) Schistosoma mansoni; experiment: Experimentally infected mice, worm count; format: in vivo
Method: as §1

[4] = mean of 10 rabbits, 70 mg/day for 7 consecutive days
[5] = 10 mice, 2.6 mg/day for 7 consecutive days
[6] = individual mice No. 1-10, 1.3 mg oral morning and evening for 7 consecutive days, 70 days after infection
[7] = total of 10 mice, 2.6 mg/day for 7 consecutive days

CC(=O)Oc1ccccc1C(=O)Nc1ncc([N+](=O)[O-])s1 [Nitazoxanide, 2-(acetolyloxy)-N-(5-nitro 2-thiazoly) benzamide]
amount that can be dissolved (Solubility in DMSO): 2 mg | %Tox - Percent toxicity to cells by the drug (MDBKF5D2 cell monolayers; 0.01 µg/ml): 10.12% | Tox/OD (MDBKF5D2 cell monolayers; 0.01 µg/ml): 1.617 | %Tox - Percent toxicity to cells by the drug (MDBKF5D2 cell monolayers; 0.1 µg/ml): ≤0% | Tox/OD (MDBKF5D2 cell monolayers; 0.1 µg/ml): 1.878 | %Tox - Percent toxicity to cells by the drug (MDBKF5D2 cell monolayers; 1 µg/ml): 10.09% | Tox/OD (MDBKF5D2 cell monolayers; 1 µg/ml): 1.618 | %Tox - Percent toxicity to cells by the drug (MDBKF5D2 cell monolayers; 10 µg/ml): 77.07% | Tox/OD (MDBKF5D2 cell monolayers; 10 µg/ml): .413 | effect on continued growth (mycobacteria; 3 µg/ml dose added at the 72 hr after culture was initiated): stops growth for the next 24 hrs and then there is a slow growth afterwards for the next 2 days | effect on continued growth (mycobacteria; 50 µg/ml dose added at the 72 hr after culture was initiated): completely bacteriostatic throughout the 144 hours of the culture | oocyst shedding at the end of treatment (Cryptosporidium parvum; Day 7, 2.6 mg/day by mouth for 7 consecutive days, suckling mice): complete reduction of the oocyst shedding | fecal examinations after the end of treatment (Cryptosporidium parvum; days 3 and 7 after the end of treatment): negative examinations | treated mice with decreased oocysts shedding (Cryptosporidium parvum; end of the third day of treatment, 2.6 mg/day by mouth for 7 consecutive days, suckling mice): 6 of the 10 | overall efficacy ([1]; 70 mg/day dose for 7 consecutive days): completely effective | No. of flukes extracted from liver of Treated Rabbits ([1]; individual rabbits No. 1-10, 35 mg morning and evening for 7 consecutive days, 10 weeks after infection): 0.0 | Efficacy % ([1]; individual rabbits No. 1-10 versus untreated control, 35 mg morning and evening for 7 consecutive days): 100% | Efficacy %, Mean (reduction) [1, 4]: 100% | No. of flukes extracted from liver of Treated Rabbits, Mean [1, 4]: 0.0 | No. of flukes removed from liver of Treated Mice, Mean/Mouse [2, 5]: 2.4 | No. of flukes removed from liver of Treated Mice [2, 6]: 2 (5×) and 0.0 and 3 (2×) and 4 (2×) | No. of flukes removed from liver of Treated Mice, Total [2, 7]: 24 | Efficacy (worm reduction) ([2]; versus control animals, 2.6 mg/day for 7 consecutive days): 82.85% | No. of flukes removed from liver of Treated Mice, Mean/Mouse [3, 5]: 9.9 | No. of flukes removed from liver of Treated Mice [3, 6]: 12 and 8 and 7 and 10 (3×) and 9 (2×) and 11 and 13 | No. of flukes removed from liver of Treated Mice, Total [3, 7]: 99 | Efficacy (worm reduction) ([3]; versus control mice, 2.6 mg/day for 7 consecutive days): 59.91%

— patent publication EP1222921B1, “Pharmaceutical compositions of tizoxanide and/or nitazoxanide” (Romark Laboratories, L.C., priority 1997, dated 1998)
